Key:
cathepsins B and L = test: Labeling of intact tumor cells (SDS-PAGE, gel scan); format: cell-based, mouse (C2C12/Ras), human (MDA-MB-435); details: C2C12/Ras and MDA-MB-435 cells, 555 KBq probe in culture medium for 2 h
Text: FIG. 2 is a series of figures which, taken together, show the structure and function of representative in vivo probes. FIG. 2A is a schematic drawing of a chelator—conjugated probe, illustrating several component moieties. FIGS. 2B and 2C are gels showing expression and activity of enzyme targets of such probe, with a radionuclide label attached to the illustrated structure, showing the expression and activity of CB in a mouse myoblast cell line C2C12Ras and human breast cancer cell line MDA-MB-435. […] Cells were pretreated with JPM-OEt (50 μM) (+) or with control DMSO (0.1%) (−) for 2 h and labeled by addition of ^64Cu-Z-FK(DOTA)-AOMK (555 KBq, 15 μCi) to culture medium for 2 h. Cells were collected, lysed and analyzed after SDS-PAGE. The labeled proteases were visualized by scanning of the gel with a Typhoon 9410 imager.
Before applying the radiolabel probe in vivo we first tested the ability of the probe to label multiple tumor cell lines grown in vitro. We initially examined the labeling of the human breast cancer cell line MBA-MB-435 and a mouse myoblastoma cell line that had been transformed by overexpression of the ras oncogene (C2C12/Ras). Both of these cell lines were used for in vivo imaging studies with the NIRF-labeled cysteine cathepsin probes. To confirm earlier studies of these cells using the NIRF probes we labeled them with general Cy5-labeled probe GB123 (FIG. 1C). […] Labeling of the same cells with ^64Cu-Z-FK(DOTA)-AOMK confirmed that the DOTA produced a similar labeling pattern to that observed for the NIRF probe GB123.
C2C12/Ras and MDA-MB-435 cells (0.25 M each well) were seeded in a six-well plate one day before the study. Cells were pretreated with the general papain family protease inhibitor JPM-OEt (50 μM^28) or with control DMSO (0.1%) for 1 h and labeled by addition of ^64Cu-Z-FK(DOTA)-AOMK (555 KBq, 15 μCi) to culture medium for 2 h. Cells was then washed with PBS and lysed. Equal amounts of protein per lane were separated by 12% SDS-PAGE. […] The labeled bands were quantified with ImageJ 1.36b (public domain software from National Institute of Health).

[1] = Octanol/water partition coefficient; format: physicochemical; details: octanol / PBS pH 7.4, repeated 3 times
Protocol: Octanol/water partition coefficient. To determine the lipophilicity of ^64Cu-Z-FK(DOTA)-AOMK, approximately 370 kBq of ^64Cu-labeled complex in 500 μl of PBS (pH 7.4) was added to 500 μl of octanol in an eppendorf microcentrifuge tube. The resulting biphasic system was mixed vigorously for 10 min and left at room temperature for another 60 min. The two phases were then separated by centrifugation at 2000 g for 5 min (model 5415R Eppendorf microcentrifuge; Brinkman, Westbury, N.Y.). From each layer, an aliquot of 100 μl was removed and counted in a γ-counter (Packard Instruments). The partition coefficient (log P) was then calculated as a ratio of counts in the octanol fraction to the counts in the water fraction. The experiment was repeated 3 times. The lipophilicity of the probe affects its in vivo pharmacokinetics, and should be modest (˜0), with hydrophobic and hydrophilic groups present. For further details, see Lin et al., “Role of Pharmacokinetics and Metabolism in Drug Discovery and Development,” Pharmacological Reviews, Vol. 49, Issue 4, 403-449, December 1997.

C2C12/Ras tumor = test: MicroPET imaging of C2C12/Ras tumor-bearing mice; format: in vivo, mouse; details: 2 and 24 hours post injection, 5.55 MBq i.v.
Text: FIG. 3 is a composite photograph showing mouse uptake of labeled probe, i.e., a series of photographs of imaged mice. For purposes of reproduction, the image is converted to black and white and reversed. Lightest to darkest is a range between 0% ID (injected dose)/g and 1% ID/g. […] Arrows indicate location of tumors.
We performed micro PET imaging of mice bearing the MDA-MB-435 and C2C12/Ras tumors. The static microPET images (5 or 10-min scan, three tumor bearing mice were used for each study) of ^64Cu-Z-FK(DOTA)-AOMK are illustrated in coronal images of the subcutaneously implanted tumor-bearing mice (FIG. 3). […] The tumor, indicated by the arrow, is not clearly illuminated.
PET imaging of tumor-bearing mice is performed on a microPET R4 rodent model scanner (Concorde Microsystems Inc, Knoxyille, Tenn.). The mice bearing C2C12/Ras and MDA-MB-435 tumors were injected with 5.55 MBq (150 μCi) of ^64Cu AOMK probe via the tail vein. At different times p.i., the mice were anesthetized with 2% isoflurane, and placed in the prone position and near the center of the field of view of microPET. The 5 or 10-min static scans were obtained and the images were reconstructed by a two-dimensional ordered subsets expectation maximum (OSEM) algorithm.

log P (octanol-water partition coefficient) [1]: −0.10±0.04
SMILES: Cc1cccc(C)c1C(=O)OCC(=O)[C@H](CCCCNC(=O)CN1CCN(CC(=O)[O-])CCN(CC(=O)O)CCN(CC(=O)[O-])CC1)NC(=O)[C@H](Cc1ccccc1)NC(=O)OCc1ccccc1.[64Cu+2] [^64Cu-Z-FK(DOTA)-AOMK]
Labeling of active cathepsins in intact cells (cathepsins B and L): efficiently modifies active cathepsins B and L
MicroPET tumor visualization / contrast (C2C12/Ras tumor): clearly visualized with good tumor to contralateral background contrast

Reference: patent publication US8343458B2, “Probes for in vivo targeting of active cysteine proteases” (The Board of Trustees of the Leland Stanford Junior …, priority 2008, dated 2013)
